{"source": "patent US5298494A", "about": "“Monosaccharides having anti-proliferation and anti-inflammatory activity, compositions and uses thereof” (Greenwich Pharmaceuticals Incorporated, priority 1993, dated 1994)", "tested_on": "T lymphocytes (normal mouse spleen cells) stimulated with ConA", "assay": "Mouse Spleen Cell ConA Blastogenesis Assay", "type": "cell-based, mouse (C57Bl/6)", "details": "for inhibition at 10 µg/mL / inhibition at 100 µg/mL / inhibition at 300 µg/mL / inhibition at 750 µg/mL / inhibition at 1 µg/mL / inhibition at 25 µg/mL / inhibition at 2.5 µg/mL / inhibition at 0.01 µg/mL / inhibition at 0.1 µg/mL: Mus musculus, T-lymphocyte; for inhibition at 2.5 µg/mL: compound 2.5 ug/ml; for inhibition at 0.1 µg/mL: compound 0.1 ug/ml", "excerpt": "It is well known that several plant lectins, when cultured in vitro with lymphocytes, stimulate cellular activation and proliferation. Concanavolin, (ConA) selectively stimulates the blastogenic response of T lymphocytes.\nSix to 8 week old male C57Bl/6 mice were purchased from Harlan Sprague Dawley (Indianapolis, Ind.).\nSpleens were removed and were homogenized to obtain a single cell suspension. Erythrocytes were lysed by hypotonic shock. Upon determination of the viability and concentration of the lymphoid cells, they were adjusted to 4×10^6 cells/ml in culture medium (RPMI-1640) supplemented with 10% fetal bovine serum; 100 ug/ml streptomycin; 100 U/ml penicillin, 0.2M hepes buffer; 5×10^-5 M 2-mercaptoethanol and 2 mM glutamine). seeded into microtiter plate wells at 2×10^5 cells/0.050 ml/well. To these cultures were added various doses of experimental compounds and ConA at a final concentration of 4 or 1 ug/ml. Control cultures consisted of cells, ConA and culture medium containing the vehicle, DMSO only. […] For the testing of the methyl 1,3-O-isopropylidene-6-O-n-heptyl-α-D-fructofuranoside compound indomethacin and NDGA were used as controls. All cultures were run in triplicate.\nSolutions of compounds of the invention in DMSO were prepared and dilutions were made in culture medium. Assay concentrations were either: 1, 2.5, 10, 25, 100, 300 and 750 ug/ml or 0.001, 0.01, 0.1, 1, 2.5, 10, 25 and 100 ug/ml.\nCultures were incubated for 3 days at 37° C. in a humidified atmosphere of 5% of CO2 in air. For the last 18 hours of culture, 1 uCi of ^3 H-thymidine was also incubated in each well. The cells were precipitated by a multi-channel harvester. The amount of ^3 H-thymidine incorporated by the cultures, as a measure of cell proliferation, was measured in a liquid scintillation counter. The amount of radioactive incorporation is proportional to the amount of cellular proliferation in individual wells. The students T test was used to determine the significance of the difference between experimental and control values.", "key": {"[1]": {"details": "ConA 1 ug/ml, compound 10 ug/ml"}, "[2]": {"details": "ConA 1 ug/ml, compound 100 ug/ml"}, "[3]": {"details": "ConA 1 ug/ml, compound 300 ug/ml"}, "[4]": {"details": "ConA 1 ug/ml, compound 750 ug/ml"}, "[5]": {"details": "ConA 4 ug/ml, compound 10 ug/ml"}, "[6]": {"details": "ConA 4 ug/ml, compound 25 ug/ml"}, "[7]": {"details": "ConA 4 ug/ml, compound 100 ug/ml"}, "[8]": {"details": "ConA 4 ug/ml, compound 300 ug/ml"}, "[9]": {"details": "ConA 4 ug/ml, compound 750 ug/ml"}, "[10]": {"details": "ConA 1 ug/ml, compound 10 ug/ml, read-out: % change from control, ConA blastogenic response"}, "[11]": {"details": "ConA 1 ug/ml, compound 100 ug/ml, read-out: % change from control, ConA blastogenic response"}, "[12]": {"details": "ConA 4 ug/ml, compound 1 ug/ml, read-out: % change from control, ConA blastogenic response"}, "[13]": {"details": "ConA 4 ug/ml, compound 10 ug/ml, read-out: % change from control, ConA blastogenic response"}, "[14]": {"details": "ConA 4 ug/ml, compound 25 ug/ml, read-out: % change from control, ConA blastogenic response"}, "[15]": {"details": "ConA 4 ug/ml, compound 100 ug/ml, read-out: % change from control, ConA blastogenic response"}, "[16]": {"details": "ConA 1 ug/ml, compound 1 ug/ml, read-out: % change from control, ConA blastogenic response"}, "[17]": {"details": "ConA 1 ug/ml, read-out: % change from control, ConA blastogenic response"}, "[18]": {"details": "ConA 1 ug/ml, compound 25 ug/ml, read-out: % change from control, ConA blastogenic response"}, "[19]": {"details": "ConA 4 ug/ml, read-out: % change from control, ConA blastogenic response"}}, "note": "Like-named read-outs stand apart in the source and are kept apart here.", "data": [{"smiles": "CC1(C)OC2OC3C(CSCCN4CCCC4)OC(C)(C)OC3C2O1", "note": "[IIIp, 1,2:3,5-Di-O-Isopropylidene-6-deoxy-6-thio-2'-(ethyl-N\"-pyrrolidyl)-α-D-glucofuranose]", "values": [{"measurement": "Blastogenic response of normal spleen cells to Con-A", "setting": "ConA 1 ug/ml, compound 1 ug/ml", "result": "118,909 × 10^3 cpm"}, {"measurement": "% change from control, ConA blastogenic response", "setting": "[1]", "result": -23, "unit": "%"}, {"measurement": "Blastogenic response of normal spleen cells to Con-A", "setting": "[1]", "result": "55,282 ± 17,762 cpm"}, {"measurement": "Blastogenic response of normal spleen cells to Con-A", "setting": "ConA 1 ug/ml, compound 25 ug/ml", "result": "101,268 ± 23,586 cpm"}, {"measurement": "% change from control, ConA blastogenic response", "setting": "[2]", "result": -11, "unit": "%"}, {"measurement": "Blastogenic response of normal spleen cells to Con-A", "setting": "[2]", "result": "64,122 ± 7,847 cpm"}, {"measurement": "% change from control, ConA blastogenic response", "setting": "[3]", "result": -63, "unit": "%"}, {"measurement": "Blastogenic response of normal spleen cells to Con-A", "setting": "[3]", "result": "26,948 ± 13,540 cpm"}, {"measurement": "% change from control, ConA blastogenic response", "setting": "[4]", "result": -94, "unit": "%"}, {"measurement": "Blastogenic response of normal spleen cells to Con-A", "setting": "[4]", "result": "3,976 ± 1,922 cpm"}, {"measurement": "% change from control, ConA blastogenic response", "setting": "ConA 4 ug/ml, compound 1 ug/ml", "result": -17, "unit": "%"}, {"measurement": "Blastogenic response of normal spleen cells to Con-A", "setting": "ConA 4 ug/ml, compound 1 ug/ml", "result": "81,109 × 10^3 cpm"}, {"measurement": "% change from control, ConA blastogenic response", "setting": "[5]", "result": -40, "unit": "%"}, {"measurement": "Blastogenic response of normal spleen cells to Con-A", "setting": "[5]", "result": "58,381 ± 7,921 cpm"}, {"measurement": "% change from control, ConA blastogenic response", "setting": "[6]", "result": -33, "unit": "%"}, {"measurement": "Blastogenic response of normal spleen cells to Con-A", "setting": "[6]", "result": "65,424 ± 13,480 cpm"}, {"measurement": "% change from control, ConA blastogenic response", "setting": "[7]", "result": -55, "unit": "%"}, {"measurement": "Blastogenic response of normal spleen cells to Con-A", "setting": "[7]", "result": "43,864 ± 9,618 cpm"}, {"measurement": "% change from control, ConA blastogenic response", "setting": "[8]", "result": -91, "unit": "%"}, {"measurement": "Blastogenic response of normal spleen cells to Con-A", "setting": "[8]", "result": "8,310 ± 945 × 10^3 cpm"}, {"measurement": "% change from control, ConA blastogenic response", "setting": "[9]", "result": -91, "unit": "%"}, {"measurement": "Blastogenic response of normal spleen cells to Con-A", "setting": "[9]", "result": "8,402 ± 3,070 cpm"}, {"measurement": "inhibition at 10 µg/mL", "setting": "[10]", "result": 23, "unit": "%"}, {"measurement": "inhibition at 100 µg/mL", "setting": "[11]", "result": 11, "unit": "%"}, {"measurement": "inhibition at 300 µg/mL", "setting": "ConA 1 ug/ml, compound 300 ug/ml, read-out: % change from control, ConA blastogenic response", "result": 63, "unit": "%"}, {"measurement": "inhibition at 750 µg/mL", "setting": "ConA 1 ug/ml, compound 750 ug/ml, read-out: % change from control, ConA blastogenic response", "result": 94, "unit": "%"}, {"measurement": "inhibition at 1 µg/mL", "setting": "[12]", "result": 17, "unit": "%"}, {"measurement": "inhibition at 10 µg/mL", "setting": "[13]", "result": 40, "unit": "%"}, {"measurement": "inhibition at 25 µg/mL", "setting": "[14]", "result": 33, "unit": "%"}, {"measurement": "inhibition at 100 µg/mL", "setting": "[15]", "result": 55, "unit": "%"}, {"measurement": "inhibition at 300 µg/mL", "setting": "ConA 4 ug/ml, compound 300 ug/ml, read-out: % change from control, ConA blastogenic response", "result": 91, "unit": "%"}, {"measurement": "inhibition at 750 µg/mL", "setting": "ConA 4 ug/ml, compound 750 ug/ml, read-out: % change from control, ConA blastogenic response", "result": 91, "unit": "%"}, {"measurement": "strong antiproliferative effect on ConA blastogenic response", "setting": "concentration not given", "result": "greater than -50 % of control"}]}, {"smiles": "CC1(C)OCC(C2OC3OC(C)(C)OC3C2NCCCO)O1", "note": "[IIk, 1,2:5,6-Di-O-isopropylidene-3-deoxy-3-amino-1'-(3'-hydroxy-n-propyl)-α-D-glucofuranose]", "values": [{"measurement": "inhibition at 100 µg/mL", "setting": "100 ug/ml, read-out: strong inhibition of ConA stimulated T lymphocyte proliferation", "result": "< 50", "unit": "%"}, {"measurement": "inhibition at 1 µg/mL", "setting": "[16]", "result": 20, "unit": "%"}, {"measurement": "inhibition at 2.5 µg/mL", "setting": "[17]", "result": 31, "unit": "%"}, {"measurement": "inhibition at 10 µg/mL", "setting": "[10]", "result": 38, "unit": "%"}, {"measurement": "inhibition at 25 µg/mL", "setting": "[18]", "result": 45, "unit": "%"}, {"measurement": "inhibition at 100 µg/mL", "setting": "[11]", "result": 95, "unit": "%"}, {"measurement": "inhibition at 1 µg/mL", "setting": "[12]", "result": 5, "unit": "%"}, {"measurement": "inhibition at 2.5 µg/mL", "setting": "[19]", "result": 0, "unit": "%"}, {"measurement": "inhibition at 10 µg/mL", "setting": "[13]", "result": 4, "unit": "%"}, {"measurement": "inhibition at 25 µg/mL", "setting": "[14]", "result": 5, "unit": "%"}, {"measurement": "inhibition at 100 µg/mL", "setting": "[15]", "result": 83, "unit": "%"}]}, {"smiles": "CCCCCCCC(=O)O[C@@H]1[C@@H](CO)O[C@@]2(OC)COC(C)(C)O[C@@H]12", "note": "[Ih, methyl 1,3-O-isopropylidene-4-O-octanoyl-α-D-fructofuranoside]", "values": [{"measurement": "inhibition at 0.01 µg/mL", "setting": "ConA 1 ug/ml, 0.01 ug/ml, read-out: % Change from Control (Table II)", "result": -12, "unit": "%"}, {"measurement": "inhibition at 0.01 µg/mL", "setting": "ConA 1 ug/ml, compound 0.01 ug/ml, read-out: % change from control, ConA blastogenic response", "result": -32, "unit": "%"}, {"measurement": "inhibition at 0.1 µg/mL", "setting": "[17]", "result": -29, "unit": "%"}, {"measurement": "inhibition at 1 µg/mL", "setting": "[16]", "result": -61, "unit": "%"}, {"measurement": "inhibition at 2.5 µg/mL", "setting": "[17]", "result": -63, "unit": "%"}, {"measurement": "inhibition at 10 µg/mL", "setting": "[10]", "result": 4, "unit": "%"}, {"measurement": "inhibition at 25 µg/mL", "setting": "[18]", "result": -39, "unit": "%"}, {"measurement": "inhibition at 100 µg/mL", "setting": "[11]", "result": 74, "unit": "%"}, {"measurement": "inhibition at 0.01 µg/mL", "setting": "ConA 4 ug/ml, 0.01 ug/ml, read-out: % Change from Control (Table II)", "result": -18, "unit": "%"}, {"measurement": "inhibition at 0.01 µg/mL", "setting": "ConA 4 ug/ml, compound 0.01 ug/ml, read-out: % change from control, ConA blastogenic response", "result": -29, "unit": "%"}, {"measurement": "inhibition at 0.1 µg/mL", "setting": "[19]", "result": -14, "unit": "%"}, {"measurement": "inhibition at 1 µg/mL", "setting": "[12]", "result": -16, "unit": "%"}, {"measurement": "inhibition at 2.5 µg/mL", "setting": "[19]", "result": -8, "unit": "%"}, {"measurement": "inhibition at 10 µg/mL", "setting": "[13]", "result": 22, "unit": "%"}, {"measurement": "inhibition at 25 µg/mL", "setting": "[14]", "result": 14, "unit": "%"}, {"measurement": "inhibition at 100 µg/mL", "setting": "[15]", "result": 90, "unit": "%"}]}]}
